This assay deals with Cryptosporidium parvum. The experiment in a line: MMV: Cryptosporidium parvum oocysts (Iowa Strain) were prepared for use by treatment with 10 mM HCl (37 degrees C, 10 min) followed by 2 mM sodium taurocholate in phosphate-buffered saline (PBS) with Ca2+ and Mg2+ (16 degrees C, 10 min) in order to stimulate excystation. The high-throughput screen was carried out by inoculating >90% confluent human ileocecal adenocarcinoma (HCT-8) cells (ATCC) with ~5.5 x 10^3 primed oocysts per well. Experimental compounds or DMSO (vehicle) were added three hours after infection, and cells were incubated for 48 hours. It is filed as functional.
As for `O=C(Nc1ccc(Cl)c(Cl)c1)Nc1ccc(Cl)c(Cl)c1`, the Inhibition (commonly the relative decrease from the control value, in per cent) is recorded as 79.74%.
As for `COc1ccc(Nc2nc(N/N=C/c3ccc(O)cc3)nc(Nc3ccc([N+](=O)[O-])cc3)n2)cc1`, the figure is -49.8%; as for `N=c1n(CCN2CCCCC2)c2ccccc2n1CC(=O)c1ccc(Cl)c(Cl)c1`, -71.18%.
Consider `Nc1nc(Nc2cccc(F)c2)nc2ccccc12`, for which the Inhibition turned out to be 22.76%.
As for `COc1ccc(/C=C2/SC(=Nc3ccccc3)NC2=O)cc1`, the figure is 35.48%.
As for `COc1ccc(-c2nc(N3CCN(C(=O)C4CCCCC4)CC3)c3c4c(sc3n2)CCCC4)cc1`, the Inhibition is listed as -3.496%.
As for `O=C(NC1CCN(Cc2ccccc2)CC1)c1cc2nc(-c3ccc(Cl)s3)cc(C(F)(F)F)n2n1`, the figure is -21.67%; as for `Cc1sc(NC(=O)c2ccccc2)c(C(c2cccs2)N2CCN(c3ccccc3)CC2)c1C` (centres undefined), -51.35%.
On to `Cc1sc(NC(=O)c2ccco2)c(C(c2cccnc2)N2CCC(Cc3ccccc3)CC2)c1C` (centres undefined), for which the Inhibition is -7.724%.
As for `COc1cc(C(=O)Nc2nc3c(cc4c5c(cccc53)CC4)s2)cc(OC)c1OC`, the figure is -26.05%; as for `COc1ccc(CCN2C(=O)c3[nH]nc(-c4cc(Cl)c(C)cc4O)c3C2c2ccccc2F)cc1` (centres undefined), 10.68%.
As for `N#Cc1nc(Cc2cccc3ccccc23)oc1N1CCN(C(c2ccccc2)c2ccccc2)CC1`, the figure is -4.219%; as for `O=C(NNc1cc(N2CCCC2)nc(N2CCCC2)n1)c1ccccc1`, -52.02%; as for `COC(=O)c1ccc(Cl)c2c1C1C=CCC1C(c1cccc3ccccc13)N2` (centres undefined), -26.02%.
In the case of `O=C(CCc1ccccc1)c1ccccc1OCC(O)CN1CCCCC1` (centres undefined), the Inhibition is reported as -4.075%.
As for `OC1=C2C(=Nc3ccccc3SC2c2ccccc2)c2ccccc21` (centres undefined), the figure is -46.02%.
In the case of `COc1cc(C(=O)Nc2ccc(-c3nc4ccccc4[nH]3)cc2)cc(OC)c1OC`, the Inhibition is given as 41.18%.
Turning to `CCOc1ccc(N2C(N)=NC(N)=NC2(C)C)cc1.Cl`, the Inhibition is -26.74%.
As for `COc1cccc(Nc2nc(N)c3ccccc3n2)c1.Cl`, the figure is 27.99%; as for `COC(=O)c1ccc(C2C3=C(O)CC(c4ccc(F)cc4)CC3=Nc3ccccc3N2C(=O)c2ccccc2)cc1` (centres undefined), -18.81%.
As for `O=C(CCl)NCCOc1ccc(Cl)cc1Cl`, the figure is 7.535%; as for `Oc1ccc(-c2nc(-c3ccc4oc5ccc(-c6[nH]c(-c7ccc(O)cc7)nc6-c6ccccc6)cc5c4c3)c(-c3ccccc3)[nH]2)cc1`, -17.83%.
As for `CCOc1ccc(CN2CCN(CC(O)COc3ccc(OCC(O)CN4CCN(Cc5ccc(OCC)cc5)CC4)cc3)CC2)cc1` (centres undefined), the figure is 1.883%; as for `CCCCNc1nc(NC(C)(C)C)nc(NC(C)(C)C)n1`, 20.51%; as for `COc1ccc(CNC(=O)c2cc3c(=O)n4ccccc4nc3n(CCc3ccccc3)c2=N)cc1`, 20.87%.
For the compound `COc1ccc(CCn2c(=N)c(C(=O)NCc3cccnc3)cc3c(=O)n4cccc(C)c4nc32)cc1`, the Inhibition amounted to 0.9407%.
As for `CC(=O)c1sc(NC(=O)Nc2ccc(C)cc2C)nc1C`, the figure is -18.27%; as for `Cl.Cn1c(=O)n(C)c2cc(CNCCNc3ccnc4cc(Cl)ccc34)ccc21`, 20.67%; as for `Cn1c(C(=O)c2cccc3ccccc23)nc2ccccc21`, -17.7%.
As for `CCOc1ccc2nc(C)cc(Nc3ccc(N(C)C)cc3)c2c1.Cl`, the figure is -13.24%.
As for `COc1ccc(Nc2cc(C)nc(NCc3ccccc3)n2)cc1`, the Inhibition is given as -1.126%.
As for `Oc1ccc2ccccc2c1CNc1nc2ccccc2[nH]1`, the figure is -48.76%; as for `O=C(Nc1ccc(-c2nc3ccccc3[nH]2)cc1)c1ccc(Cl)c(Cl)c1`, 10.57%; as for `O=C1c2ccc3c4c(ccc(c24)C(=O)N1CCCCO)C(=O)N(CCCCO)C3=O`, 79.86%.
As for `O=C(Nc1ccc(-c2nc3cc(NC(=O)c4ccc(Cl)cc4)ccc3[nH]2)cc1)c1ccc(Cl)cc1`, the Inhibition is -6.932%.
Take `OCCNc1nc(Nc2ccc(Cl)c(Cl)c2)nc2ccccc12`: the Inhibition was 12.96%.
As for `Nc1ccc(-c2nc3cc(Oc4ccc(Oc5ccc6[nH]c(-c7ccc(N)cc7)nc6c5)cc4)ccc3[nH]2)cc1`, the Inhibition is on record as -48.18%.
As for `CCOC(=O)c1cnc2ccc(OC)cc2c1Nc1ccc(N2CCN(C)CC2)cc1`, the figure is -40.43%; as for `Cc1cc(N(C)C)nc(Nc2ccc(NC(=O)Nc3ccccc3)cc2)n1`, -29.16%; as for `COc1ccccc1C(=O)ON=C(N)Cc1cccc2ccccc12`, -19.53%.
As for `COc1ccc(C(=O)C(CCC(CNC(C)(C)C)C(=O)c2ccc(OC)cc2)CNC(C)(C)C)cc1` (centres undefined), the figure is -20.25%; as for `COc1cc(C(=O)ON=C(N)Cc2cccc3ccccc23)cc(OC)c1OC`, 26.07%.
Regarding `CN1C=C(c2ccc3ccccc3n2)C(c2c[nH]c3ccccc23)c2ccccc21` (centres undefined), the Inhibition is reported as -24.69%.
As to `Oc1c(C(Nc2ccccn2)c2cccc(Oc3ccccc3)c2)ccc2cccnc12` (centres undefined), the Inhibition came out at 73.93%.
In the case of `COc1cc(-c2nc(-c3ccccc3)c(-c3ccccc3)[nH]2)cc(OC)c1O`, the Inhibition is listed as -1.324%.
With `Cc1ccc(Nc2nc(N)c3ccccc3n2)cc1Cl`, the Inhibition was determined as 40.42%.
As for `OC(CNC1CCCCC1)Cn1c2ccc(I)cc2c2cc(I)ccc21` (centres undefined), the figure is 25.2%; as for `CCc1ccc(CNCC(O)c2ccccc2)cc1.Cl` (centres undefined), -7.138%.
As for `Br.CCn1c2c(c(=N)c3c1CCC3)CCCC2`, the figure is 9.729%.
Take `COc1cc(CNCCc2ccc(Cl)cc2)cc(OC)c1O`: the Inhibition turned out to be 5.38%.
Take `Cc1ccc2c(C)nc(Nc3nc(C)cc(-c4ccccc4)n3)nc2c1`: the Inhibition is given as -62.95%.
On to `CCOc1ccc(Nc2ccnc3cc(Cl)ccc23)cc1`, for which the Inhibition was -43.83%.
As to `Oc1ccc(Br)cc1CN1CCN(Cc2ccc(Cl)cc2)CC1`, the Inhibition is -16.25%.
Take `CCOc1ccc2nc(C)cc(Nc3ccc(Br)cc3)c2c1`: the Inhibition is -4.208%.
`COc1cc2c3cc1Oc1c(OC)c(OC)cc4c1C(Cc1ccc(O)c(c1)Oc1ccc(cc1)CC3N(C)CC2)N(C)CC4.Cl` (centres undefined): the Inhibition was -14.29%.
As for `Br.Cc1ccc(C)c(-c2csc(Nc3ccc(C)c(C)c3)n2)c1`, the figure is -25.23%.
In the case of `CCOC(=O)c1cnc2ccc(OC)cc2c1NCc1ccccc1`, the Inhibition was determined as 13.76%.
As for `CCCn1c(=N)c(C(=O)NC2CCCCC2)cc2c(=O)n3cccc(C)c3nc21`, the figure is -27.29%; as for `CCOC(=O)C1=CN(C)C=C(C(=O)OCC)C1c1cc(Br)c(OCC)c(OC)c1`, -2.299%.
As for `CC(C)(C)c1ccc(C2CC3=Nc4ccccc4N(C(=O)c4ccccc4Cl)C(c4ccc(F)cc4)C3=C(O)C2)cc1` (centres undefined), the figure is 20.41%; as for `CN1CCN(c2nc(Nc3ccc(O)cc3)nc3ccccc23)CC1.Cl`, -22.12%; as for `Nc1ccn([C@@H]2O[C@H](CO)[C@@H](O)[C@H]2O)c(=O)n1` [CYTIDINE], 73.84%.
Consider `O=C(Nc1cccc(C2=NCCN2)c1)Nc1cccc(C2=NCCN2)c1` [IMIDOCARB], for which the Inhibition is listed as 9.453%.
For the compound `CN(C)c1ccc(C(O)(c2ccc(N(C)C)cc2)c2ccc(N(C)C)cc2)cc1` [METHYLROSANILINE], the Inhibition is recorded as 77.77%.

The values above are taken from ChEMBL document CHEMBL3137356, “MMV Box Cryptosporidium parvum screening set”.
